# Values quoted from earlier work as cited in PubChem BioAssay AID1259409 (Chemical Carcinogenesis Research Information System (CCRIS), 2018).
# System: rodent chemically induced tumor inhibition, incidence and multiplicity
# Test: CCRIS tumor inhibitor studies
smiles,measurement,setting,value
O=C1CCCO1,"tumour outcome (control, treated, inhibition, significance)","Carcinogen: N-METHYL-N'-NITRO-N-NITROSOGUANIDINE, 70-25-7, Dose [Inhibitor]: 0, 200 MG/KG/BW SUSPENSION IN OLIVE OIL 1/2 D BEGINNING POST CARCINOGEN TREATMENT AND CONTINUING FOR DURATION OF STUDY (, Route [Inhibitor]: SUBCUTANEOUS, Species: RAT, Strain/Sex: WISTAR/MALE, Target Tissue: Type of Lesion: STOMACH: ADENOCARCINOMA, Dose [Carcinogen]: 50 UG/ML IN DRINKING WATER FOR 25 WK, Promoter: NONE USED","16/20 (80%), 13/20 (65%), 19%, not significant"
CC(C)CCC[C@@H](C)[C@H]1CC[C@H]2[C@@H]3CC=C4C[C@@H](OS(=O)(=O)O)CC[C@]4(C)[C@H]3CC[C@]12C,"tumour outcome (control, treated, inhibition, significance)","Carcinogen: 7,12-DIMETHYLBENZ[A]ANTHRACENE, 57-97-6, Dose [Inhibitor]: 0, 400 UG IN 0.2 ML METHANOL:ACETONE (1:4) APPLIED 10 MIN PRIOR TO EACH PROMOTER DOSE FOR 20 WK (STUDY DURATION: 20 WK), Route [Inhibitor]: DERMAL, Species: MOUSE, Strain/Sex: CD-1/FEMALE, Target Tissue: Type of Lesion: SKIN: TUMOR, Dose [Carcinogen]: 100 UG ONCE, Promoter: 12-O-TETRADECANOYLPHORBOL-13-ACETATE, 16561-29-8, MEZEREIN, 34807-41-5, Promoter: 12-O-TETRADECANOYLPHORBOL-13-ACETATE, 16561-29-8, MEZEREIN, 34807-41-5","90%, 40%, 56%, not calculated"
COc1c(N2C[C@@H]3CCCN[C@@H]3C2)c(F)cc2c(=O)c(C(=O)O)cn(C3CC3)c12,outcome,"Carcinogen: N-BUTYL-N-(4-HYDROXYBUTYL)NITROSAMINE, 3817-11-6, Dose [Inhibitor]: 0, 500 MG/KG BW/D FOR 24 WK BEGINNING 14 WK POST CARCINOGEN FIRST DOSE (STUDY DURATION: 38 WK), Route [Inhibitor]: ORAL, Species: RAT, Strain/Sex: WISTAR/MALE, FEMALE, Target Tissue: Type of Lesion: LIVER: TUMOR, Dose [Carcinogen]: 0.02% IN DRINKING WATER FOR FIRST 9 WK","0%, 1/18 (6%), -100%, not significant"
same,"tumour outcome (control, treated, inhibition, significance)","Carcinogen: N-BUTYL-N-(4-HYDROXYBUTYL)NITROSAMINE, 3817-11-6, Dose [Inhibitor]: 0, 500 MG/KG BW/D FOR 24 WK BEGINNING 14 WK POST CARCINOGEN FIRST DOSE (STUDY DURATION: 38 WK), Route [Inhibitor]: ORAL, Species: RAT, Strain/Sex: WISTAR/MALE, FEMALE, Target Tissue: Type of Lesion: URINARY BLADDER: TUMOR, Dose [Carcinogen]: 0.02% IN DRINKING WATER FOR FIRST 9 WK","13/18 (72%), 10/18 (56%), 22%, not significant"
same,"tumour outcome (control, treated, inhibition, significance)","Carcinogen: N-ETHYL-N-NITROSOUREA, 759-73-9, Dose [Inhibitor]: 0, 500 MG/KG BW/D FOR 24 WK BEGINNING 14 WK POST CARCINOGEN FIRST DOSE (STUDY DURATION: 38 WK), Route [Inhibitor]: ORAL, Species: RAT, Strain/Sex: WISTAR/MALE, FEMALE, Target Tissue: Type of Lesion: AUDITORY SEBACEOUS GLAND: TUMOR, Dose [Carcinogen]: 20 MG/KG BW 1/WK FOR FIRST 10 WK","9/26 (35%), 4/26 (15%), 57%, not significant"
same,"tumour outcome (control, treated, inhibition, significance)","Carcinogen: N-ETHYL-N-NITROSOUREA, 759-73-9, Dose [Inhibitor]: 0, 500 MG/KG BW/D FOR 24 WK BEGINNING 14 WK POST CARCINOGEN FIRST DOSE (STUDY DURATION: 38 WK), Route [Inhibitor]: ORAL, Species: RAT, Strain/Sex: WISTAR/MALE, FEMALE, Target Tissue: Type of Lesion: HEART: TUMOR, Dose [Carcinogen]: 20 MG/KG BW 1/WK FOR FIRST 10 WK","1/26 (4%), 0%, 100%, not significant"
same,"tumour outcome (control, treated, inhibition, significance)","Carcinogen: N-ETHYL-N-NITROSOUREA, 759-73-9, Dose [Inhibitor]: 0, 500 MG/KG BW/D FOR 24 WK BEGINNING 14 WK POST CARCINOGEN FIRST DOSE (STUDY DURATION: 38 WK), Route [Inhibitor]: ORAL, Species: RAT, Strain/Sex: WISTAR/MALE, FEMALE, Target Tissue: Type of Lesion: HEMATOLYMPHORETICULAR: TUMOR, Dose [Carcinogen]: 20 MG/KG BW 1/WK FOR FIRST 10 WK","15/26 (58%), 13/26 (50%), 14%, not significant"
same,"tumour outcome (control, treated, inhibition, significance)","Carcinogen: N-ETHYL-N-NITROSOUREA, 759-73-9, Dose [Inhibitor]: 0, 500 MG/KG BW/D FOR 24 WK BEGINNING 14 WK POST CARCINOGEN FIRST DOSE (STUDY DURATION: 38 WK), Route [Inhibitor]: ORAL, Species: RAT, Strain/Sex: WISTAR/MALE, FEMALE, Target Tissue: Type of Lesion: LARGE INTESTINE: TUMOR, Dose [Carcinogen]: 20 MG/KG BW 1/WK FOR FIRST 10 WK","9/26 (35%), 7/26 (27%), 23%, not significant"
same,outcome,"Carcinogen: N-ETHYL-N-NITROSOUREA, 759-73-9, Dose [Inhibitor]: 0, 500 MG/KG BW/D FOR 24 WK BEGINNING 14 WK POST CARCINOGEN FIRST DOSE (STUDY DURATION: 38 WK), Route [Inhibitor]: ORAL, Species: RAT, Strain/Sex: WISTAR/MALE, FEMALE, Target Tissue: Type of Lesion: LIVER: TUMOR, Dose [Carcinogen]: 20 MG/KG BW 1/WK FOR FIRST 10 WK","0%, 0%, 0%, not significant"
same,"tumour outcome (control, treated, inhibition, significance)","Carcinogen: N-ETHYL-N-NITROSOUREA, 759-73-9, Dose [Inhibitor]: 0, 500 MG/KG BW/D FOR 24 WK BEGINNING 14 WK POST CARCINOGEN FIRST DOSE (STUDY DURATION: 38 WK), Route [Inhibitor]: ORAL, Species: RAT, Strain/Sex: WISTAR/MALE, FEMALE, Target Tissue: Type of Lesion: MAMMARY GLAND: TUMOR, Dose [Carcinogen]: 20 MG/KG BW 1/WK FOR FIRST 10 WK","5/26 (19%), 2/26 (8%), 58%, not significant"
same,outcome,"Carcinogen: N-ETHYL-N-NITROSOUREA, 759-73-9, Dose [Inhibitor]: 0, 500 MG/KG BW/D FOR 24 WK BEGINNING 14 WK POST CARCINOGEN FIRST DOSE (STUDY DURATION: 38 WK), Route [Inhibitor]: ORAL, Species: RAT, Strain/Sex: WISTAR/MALE, FEMALE, Target Tissue: Type of Lesion: MESENTERY: TUMOR, Dose [Carcinogen]: 20 MG/KG BW 1/WK FOR FIRST 10 WK","0%, 1/26 (4%), -100%, not significant"
same,outcome,"Carcinogen: N-ETHYL-N-NITROSOUREA, 759-73-9, Dose [Inhibitor]: 0, 500 MG/KG BW/D FOR 24 WK BEGINNING 14 WK POST CARCINOGEN FIRST DOSE (STUDY DURATION: 38 WK), Route [Inhibitor]: ORAL, Species: RAT, Strain/Sex: WISTAR/MALE, FEMALE, Target Tissue: Type of Lesion: NASAL CAVITY: TUMOR, Dose [Carcinogen]: 20 MG/KG BW 1/WK FOR FIRST 10 WK","0%, 0%, 0%, not significant"
same,outcome,"Carcinogen: N-ETHYL-N-NITROSOUREA, 759-73-9, Dose [Inhibitor]: 0, 500 MG/KG BW/D FOR 24 WK BEGINNING 14 WK POST CARCINOGEN FIRST DOSE (STUDY DURATION: 38 WK), Route [Inhibitor]: ORAL, Species: RAT, Strain/Sex: WISTAR/MALE, FEMALE, Target Tissue: Type of Lesion: PANCREAS: TUMOR, Dose [Carcinogen]: 20 MG/KG BW 1/WK FOR FIRST 10 WK","0%, 0%, 0%, not significant"
same,"tumour outcome (control, treated, inhibition, significance)","Carcinogen: N-ETHYL-N-NITROSOUREA, 759-73-9, Dose [Inhibitor]: 0, 500 MG/KG BW/D FOR 24 WK BEGINNING 14 WK POST CARCINOGEN FIRST DOSE (STUDY DURATION: 38 WK), Route [Inhibitor]: ORAL, Species: RAT, Strain/Sex: WISTAR/MALE, FEMALE, Target Tissue: Type of Lesion: SEMINAL VESICLES: TUMOR, Dose [Carcinogen]: 20 MG/KG BW 1/WK FOR FIRST 10 WK","1/26 (4%), 0%, 100%, not significant"
same,"tumour outcome (control, treated, inhibition, significance)","Carcinogen: N-ETHYL-N-NITROSOUREA, 759-73-9, Dose [Inhibitor]: 0, 500 MG/KG BW/D FOR 24 WK BEGINNING 14 WK POST CARCINOGEN FIRST DOSE (STUDY DURATION: 38 WK), Route [Inhibitor]: ORAL, Species: RAT, Strain/Sex: WISTAR/MALE, FEMALE, Target Tissue: Type of Lesion: SKIN: TUMOR, Dose [Carcinogen]: 20 MG/KG BW 1/WK FOR FIRST 10 WK","9/26 (35%), 10/26 (39%), -11%, not significant"
same,outcome,"Carcinogen: N-ETHYL-N-NITROSOUREA, 759-73-9, Dose [Inhibitor]: 0, 500 MG/KG BW/D FOR 24 WK BEGINNING 14 WK POST CARCINOGEN FIRST DOSE (STUDY DURATION: 38 WK), Route [Inhibitor]: ORAL, Species: RAT, Strain/Sex: WISTAR/MALE, FEMALE, Target Tissue: Type of Lesion: SUBCUTIS: TUMOR, Dose [Carcinogen]: 20 MG/KG BW 1/WK FOR FIRST 10 WK","0%, 0%, 0%, not significant"
CCCCNC(=O)/C=C(C)/C=C/C=C(C)/C=C/C1=C(C)CCCC1(C)C,"tumour outcome (control, treated, inhibition, significance)","Carcinogen: N-BUTYL-N-(4-HYDROXYBUTYL)NITROSAMINE, 3817-11-6, Dose [Inhibitor]: 1.5 MMOL/KG DIET DAILY FOR 133 D STARTING ONE WK AFTER THE FINAL CARCINOGEN DOSE (STUDY DURATION: 190 D), Route [Inhibitor]: ORAL, Species: MOUSE, Strain/Sex: BDF/MALE, Target Tissue: Type of Lesion: URINARY BLADDER: TRANSITIONAL CELL CARCINOMA, Dose [Carcinogen]: 7.5 MG 1/WK FOR 8 WK, Promoter: NONE USED","21/100 (21%), 19/100 (19%), 10%, not significant"
same,"tumour outcome (control, treated, inhibition, significance)","Carcinogen: N-BUTYL-N-(4-HYDROXYBUTYL)NITROSAMINE, 3817-11-6, Dose [Inhibitor]: 1.5 MMOL/KG IN DIET FOR 133 D STARTING 1 WK AFTER THE LAST CARCINOGEN DOSE (STUDY DURATION: 190 D), Route [Inhibitor]: ORAL, Species: MOUSE, Strain/Sex: DBF1/MALE, Target Tissue: Type of Lesion: URINARY BLADDER: TRANSITIONAL CELL CARCINOMA, Dose [Carcinogen]: 7.5 MG 1/WK FOR 8 WK, Promoter: NONE USED","21/100 (21%), 19/100 (19%), 10%, not significant"
COc1ccc2cc1Oc1ccc(cc1)C[C@H]1c3cc(c(OC)cc3CCN1C)Oc1c(OC)c(OC)cc3c1[C@@H](C2)N(C)CC3,"tumour outcome (control, treated, inhibition, significance)","Carcinogen: 7,12-DIMETHYLBENZ[A]ANTHRACENE, 57-97-6, Dose [Inhibitor]: 0, 2 UMOL 2/WK 30 MIN PRIOR TO EACH PROMOTER DOSE BEGINNING 1 WK POST CARCINOGEN DOSE (STUDY DURATION: 18 WK), Route [Inhibitor]: DERMAL, Species: MOUSE, Strain/Sex: ICR/FEMALE, Target Tissue: Type of Lesion: SKIN: PAPILLOMA, Dose [Carcinogen]: 50 UG ONCE, Promoter: 12-O-TETRADECANOYLPHORBOL-13-ACETATE, 16561-29-8","100%, 27%, 73%, not calculated"
